According to ChEMBL document CHEMBL5620411, “Perspectives and new aspects of histone deacetylase inhibitors in the therapy of CNS diseases” (Eur J Med Chem, 2023):
One block for each molecule: values may come before it.

Legend:
Histone deacetylase 1 [1] = target: T1, Histone deacetylase 1 (Homo sapiens, UniProt Q13547); test: Inhibition of HDAC1 (unknown origin)
U-251 = test: Antiproliferative activity against human U-251 cells assessed as reduction in cell viability incubated for 24 hrs by MTT assay; assay type: functional, cell-based; details: U-251, 24 h
[2] = Brain to plasma ratio in rat; assay type: ADME; details: read-out: BPR
[3] = target: T2, Protein deacetylase HDAC6 (Homo sapiens, UniProt Q9UBN7); test: Inhibition of human HDAC6
T2 sequence (Q9UBN7 whole entry): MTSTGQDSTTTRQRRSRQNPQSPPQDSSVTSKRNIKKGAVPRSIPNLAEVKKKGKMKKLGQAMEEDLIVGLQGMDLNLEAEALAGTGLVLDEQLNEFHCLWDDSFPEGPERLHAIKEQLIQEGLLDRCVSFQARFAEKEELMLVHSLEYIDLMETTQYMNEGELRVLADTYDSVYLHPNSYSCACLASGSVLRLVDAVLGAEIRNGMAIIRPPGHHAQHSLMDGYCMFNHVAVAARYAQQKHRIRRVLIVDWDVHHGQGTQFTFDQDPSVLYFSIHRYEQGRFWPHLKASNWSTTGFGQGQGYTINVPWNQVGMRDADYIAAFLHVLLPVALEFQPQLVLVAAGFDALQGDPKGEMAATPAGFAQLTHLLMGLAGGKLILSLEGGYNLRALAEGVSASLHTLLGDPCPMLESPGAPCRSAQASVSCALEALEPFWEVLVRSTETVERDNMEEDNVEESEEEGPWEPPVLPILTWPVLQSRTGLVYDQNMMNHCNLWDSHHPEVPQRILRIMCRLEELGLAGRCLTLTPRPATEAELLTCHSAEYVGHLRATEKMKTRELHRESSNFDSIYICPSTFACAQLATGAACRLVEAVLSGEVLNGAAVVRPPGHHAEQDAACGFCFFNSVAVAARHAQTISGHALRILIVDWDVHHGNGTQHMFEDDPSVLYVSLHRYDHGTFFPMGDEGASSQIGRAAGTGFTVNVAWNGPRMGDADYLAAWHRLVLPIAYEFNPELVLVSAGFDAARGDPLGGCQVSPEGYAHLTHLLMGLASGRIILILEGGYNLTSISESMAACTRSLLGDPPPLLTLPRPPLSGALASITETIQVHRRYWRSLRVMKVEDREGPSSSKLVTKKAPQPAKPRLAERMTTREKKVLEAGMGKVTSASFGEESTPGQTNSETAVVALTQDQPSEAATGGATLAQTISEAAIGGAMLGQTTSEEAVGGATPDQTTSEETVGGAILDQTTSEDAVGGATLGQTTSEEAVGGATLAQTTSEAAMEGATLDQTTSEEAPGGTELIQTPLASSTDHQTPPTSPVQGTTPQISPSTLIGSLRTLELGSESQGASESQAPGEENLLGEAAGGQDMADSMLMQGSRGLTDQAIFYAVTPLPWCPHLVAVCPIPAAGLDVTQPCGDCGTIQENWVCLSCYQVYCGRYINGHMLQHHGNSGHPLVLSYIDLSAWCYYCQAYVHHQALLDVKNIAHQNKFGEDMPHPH

Histone deacetylase 1 [4] = target: T1, Histone deacetylase 1; test: Inhibition of C-terminal FLAG-tagged human recombinant HDAC1 expressed in baculovirus by HTRF method
[5] = target: T2, Protein deacetylase HDAC6; test: Inhibition of N-terminal FLAG-tagged full length human recombinant HDAC6 expressed in baculovirus
Histone deacetylase 2 = Histone deacetylase 2 (Homo sapiens, UniProt Q92769); test: Inhibition of C-terminal FLAG-tagged full length human recombinant HDAC2 expressed in Sf9 cells by HTRF method
[6] = target: Histone deacetylase 4 (Homo sapiens) (UniProt P56524); test: Inhibition of human recombinant HDAC4 (645 to 1057 residues) expressed in Escherichia coli
Histone deacetylase 8 = target: T3, Histone deacetylase 8 (Homo sapiens, UniProt Q9BY41); test: Inhibition of C-terminal FLAG-tagged full length human recombinant HDAC8 expressed in baculovirus
T3 sequence (Q9BY41 whole entry): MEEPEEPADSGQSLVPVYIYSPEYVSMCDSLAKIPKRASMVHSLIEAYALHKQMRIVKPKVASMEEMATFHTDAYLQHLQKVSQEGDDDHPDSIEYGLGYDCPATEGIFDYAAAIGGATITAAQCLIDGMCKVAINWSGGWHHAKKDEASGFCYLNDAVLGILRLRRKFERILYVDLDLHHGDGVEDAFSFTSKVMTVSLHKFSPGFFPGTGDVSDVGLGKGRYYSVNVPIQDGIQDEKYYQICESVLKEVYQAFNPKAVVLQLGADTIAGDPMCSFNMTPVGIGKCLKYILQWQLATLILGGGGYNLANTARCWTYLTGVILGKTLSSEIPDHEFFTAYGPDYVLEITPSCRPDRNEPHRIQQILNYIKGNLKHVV

U-87 MG [7] = test: Antiproliferative activity against human U87 cells assessed as reduction in cell growth incubated for 72 hrs by MTT assay; assay type: functional, cell-based, U-87MG ATCC
[8] = Half life in mouse plasma at 1 uM by LC-MS/MS analysis; assay type: ADME, cell-free
U-87 MG [9] = test: Antiproliferative activity against human U87 cells assessed as reduction in cell viability incubated for 72 hrs by MTT assay
[10] = Half life in mouse; assay type: ADME, organism-based; details: in vivo

T1 sequence (Q13547 whole entry): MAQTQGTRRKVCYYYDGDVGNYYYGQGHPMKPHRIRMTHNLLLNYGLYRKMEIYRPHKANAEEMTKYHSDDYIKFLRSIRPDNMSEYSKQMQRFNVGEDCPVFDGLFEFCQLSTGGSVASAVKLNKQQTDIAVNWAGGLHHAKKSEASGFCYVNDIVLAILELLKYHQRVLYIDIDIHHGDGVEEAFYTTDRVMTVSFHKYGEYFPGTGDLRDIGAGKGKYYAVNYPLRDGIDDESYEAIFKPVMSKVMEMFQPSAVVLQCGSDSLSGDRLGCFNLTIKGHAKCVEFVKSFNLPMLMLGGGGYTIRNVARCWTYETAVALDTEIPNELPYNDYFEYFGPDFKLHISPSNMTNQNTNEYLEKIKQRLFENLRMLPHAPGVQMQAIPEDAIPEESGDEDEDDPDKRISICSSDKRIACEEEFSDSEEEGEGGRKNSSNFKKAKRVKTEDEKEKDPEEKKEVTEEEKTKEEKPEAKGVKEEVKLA
Histone deacetylase 4 (Homo sapiens), sequence (P56524 whole entry, the tested form may be a part): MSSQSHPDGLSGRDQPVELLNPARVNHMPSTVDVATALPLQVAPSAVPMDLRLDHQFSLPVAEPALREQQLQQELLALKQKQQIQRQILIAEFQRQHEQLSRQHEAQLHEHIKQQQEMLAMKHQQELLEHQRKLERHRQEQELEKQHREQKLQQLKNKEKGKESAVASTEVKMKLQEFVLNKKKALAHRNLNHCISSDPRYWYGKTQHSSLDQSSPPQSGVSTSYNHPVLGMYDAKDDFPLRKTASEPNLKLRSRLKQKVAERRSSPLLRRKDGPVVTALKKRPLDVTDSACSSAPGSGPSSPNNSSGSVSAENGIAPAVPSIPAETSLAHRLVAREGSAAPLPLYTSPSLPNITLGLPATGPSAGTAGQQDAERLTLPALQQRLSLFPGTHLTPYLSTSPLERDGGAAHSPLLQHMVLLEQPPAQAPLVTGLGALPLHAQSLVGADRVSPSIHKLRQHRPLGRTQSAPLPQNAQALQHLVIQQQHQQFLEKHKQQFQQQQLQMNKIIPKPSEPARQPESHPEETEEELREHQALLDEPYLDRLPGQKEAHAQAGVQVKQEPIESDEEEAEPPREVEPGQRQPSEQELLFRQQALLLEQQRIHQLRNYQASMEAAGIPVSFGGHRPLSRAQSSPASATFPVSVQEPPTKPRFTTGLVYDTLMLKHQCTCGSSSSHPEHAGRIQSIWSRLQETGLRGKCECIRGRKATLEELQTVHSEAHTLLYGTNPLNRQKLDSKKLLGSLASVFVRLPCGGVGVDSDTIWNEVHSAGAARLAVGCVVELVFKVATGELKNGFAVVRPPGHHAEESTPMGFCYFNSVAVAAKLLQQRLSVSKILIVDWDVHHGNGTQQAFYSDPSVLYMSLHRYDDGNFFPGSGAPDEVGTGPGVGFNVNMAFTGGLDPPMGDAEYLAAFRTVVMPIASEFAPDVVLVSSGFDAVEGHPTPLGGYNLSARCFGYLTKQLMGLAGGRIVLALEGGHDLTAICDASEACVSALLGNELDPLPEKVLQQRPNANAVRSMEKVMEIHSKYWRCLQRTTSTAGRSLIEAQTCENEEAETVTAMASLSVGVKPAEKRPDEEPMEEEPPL
Histone deacetylase 2, sequence (Q92769 whole entry, the tested form may be a part): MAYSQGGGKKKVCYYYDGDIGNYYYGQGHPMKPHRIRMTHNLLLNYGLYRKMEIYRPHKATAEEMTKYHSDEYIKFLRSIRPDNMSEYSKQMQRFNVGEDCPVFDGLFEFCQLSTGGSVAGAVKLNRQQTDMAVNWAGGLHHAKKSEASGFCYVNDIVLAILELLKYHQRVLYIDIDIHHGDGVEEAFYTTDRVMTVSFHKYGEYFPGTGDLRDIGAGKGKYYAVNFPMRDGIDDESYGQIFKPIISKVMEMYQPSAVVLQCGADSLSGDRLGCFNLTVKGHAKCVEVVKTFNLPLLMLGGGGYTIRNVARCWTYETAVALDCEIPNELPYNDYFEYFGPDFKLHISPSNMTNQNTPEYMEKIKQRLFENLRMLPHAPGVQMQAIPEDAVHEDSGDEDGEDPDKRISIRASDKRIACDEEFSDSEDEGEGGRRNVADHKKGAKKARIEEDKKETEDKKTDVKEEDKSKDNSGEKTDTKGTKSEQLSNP

IC50 (Histone deacetylase 1 [1]): 0.12 µM | IC50 (U-251): 0.89 µM
Structure (SMILES): O=C(CCCCCCC(=O)Nc1cc(C(F)(F)F)ccc1Cl)NO

Kp [2]: 2.3
Structure (SMILES): O=C(NO)c1ccc(CN2CCCSc3ccccc32)cc1

IC50 [3]: 0.015 µM | Kp [2]: 0.18
Structure (SMILES): CN1CCC2c3ccccc3N(Cc3ccc(C(=O)NO)cc3)C2C1 (centres undefined)

IC50 (Histone deacetylase 1 [4]): 0.0087 µM | IC50 [5]: 0.0038 µM | IC50 (Histone deacetylase 2): > 0.559 µM | IC50 [6]: > 0.559 µM | IC50 (Histone deacetylase 8): > 0.559 µM
Structure (SMILES): COc1cc(-c2nc(C(=O)NCc3ccc(C(=O)NO)cc3)cc3c2[nH]c2ccccc23)cc(OC)c1OC

IC50 (U-87 MG [7]): 2.78 µM | half-life at 1 µM [8]: 1.53 h
Structure (SMILES): COc1cc(/C=C/C(=O)CC(=O)/C=C/c2ccc(/C=C/C(=O)NO)cc2)ccc1O

IC50 (U-87 MG [9]): 31.9 µM | t1/2 [10]: 0.287 h
Structure (SMILES): COc1cc(/C=C/C(=O)CC(=O)/C=C/c2ccc(O)c(OC)c2)ccc1O [CURCUMIN]
